Counter-ions that a name gives are not always drawn.
Test system: human coronary artery smooth muscle cells (CASMC)
Assay: Vascular Smooth Muscle Cell (SMC) Antiproliferation Assay
Type: cell-based
Conditions: CASMC; viable cell count (Trypan Blue) ~68 hr after compound addition; nitrosylated (nitrosothiol) compound; read-out: IC 50 μM, Nitrosylated Compound (inhibition of proliferation of vascular smooth muscle cells)
Protocol: The cells used in this assay were-human coronary artery smooth-muscle cells (CASMC) supplied by Clonetics Corp. (San Diego, Calif.).
Stock solutions of the test compounds were prepared just prior to addition to the cells by dissolving in ethanol at a concentration of 1000 times the highest concentration to be assayed. This stock solution was diluted, as required, with ethanol to lower concentrations. […] Control cultures received 2 μL of ethanol per well (n=4). On the following morning, the cultures were examined microscopically and their condition recorded. On the third day after test compound addition (˜68 hr), the cultures were examined microscopically again and the viable cells counted with an hemacytometer following trypsinization with 0.25% trypsin-1 mM EDTA. Trypan Blue dye exclusion was used to discriminate between viable and dead cells.

`CC1(SN=O)C2CC3CC(C2)CC1C3` (stereo not shown) [Example 25c, (2-Methyladamantan-2-yl)nitrosothio] and `O=NSC1(CC(=O)NCCO)C2CC3CC(C2)CC1C3` (stereo not shown) [Example 34d, N-(2-Hydroxyethyl)-2-(2-(nitrosthio)adamantan-2-yl)acetamide] are within 1.5-fold of each other in IC50: 33 µM for the first, 23 µM for the second.

`O=NSC1(CO)CCN(C(=O)OCc2ccccc2)CC1` [Example 26e, Phenylmethyl 4-(hydroxymethyl)-4-(nitrosothio)piperidinecarboxylate] and `C[N+](C)(CCNC(=O)CC1(SN=O)C2CC3CC(C2)CC1C3)Cc1ccccc1` (stereo not shown) [Example 43c, N-(2-(Dimethylbenzylammonium)ethyl)-2-(2-(nitrosothio)adamantan-2-yl)acetamide chloride] are within 1.5-fold of each other in IC50: 33 µM for the first, 27 µM for the second.

Compared with `CC1(SN=O)CN2CCC1CC2` (stereo not shown) [Example 36c, (3-Methylquinudidin-3-yl)nitrosothio hydrochlroide], `COP(=O)(CC(SN=O)(C1CC1)C1CC1)OC` [Example 47b, Dimethyl (2,2-dicyclopropyl-2-(nitrosothio)ethyl)phosphonate] is 1.9-fold higher in IC50: 22 µM for the first, 41 µM for the second. The first is the more potent here.

In the case of `C[N+](C)(C)CCNC(=O)CC1(SN=O)C2CC3CC(C2)CC1C3` (stereo not shown) [Example 44c, 2-(2-(Nitrosothio)adamantan-2-yl)-N-(2-(trimethylammonium)ethyl)-acetamide chloride], the IC50 is reported as 33.5 µM.

Same assay, conditions: CASMC; viable cell count (Trypan Blue) ~68 hr after compound addition; non-nitrosylated (sulfhydryl) compound

For `NC(=O)CC1(S)C2CC3CC(C2)CC1C3` (stereo not shown) [Example 12c, 2-(2-Sulfanyladamantan-2-yl)acetamide], the “IC 50 μM, Non-nitrosylated Compound (inhibition of proliferation of vascular smooth muscle cells)” value was “slight inhibition”.
For `CC(C)(S)CN` [Example 18a, 2-Mercapto-2-methyl-1-propylamine], the “IC 50 μM, Non-nitrosylated Compound (inhibition of proliferation of vascular smooth muscle cells)” value was “slight inhibition”.
In the case of `CC(C)(S)CNC(=O)NCC(C)(C)S` [Example 20c, N-(2-Methyl-2-sulfanylpropyl)((2-methyl-2-sulfanylpropyl)amino)carboxade], the “IC 50 μM, Non-nitrosylated Compound (inhibition of proliferation of vascular smooth muscle cells)” value is reported as “slight inhibition”.
For `CC(C)(S)CN1C(=O)NC(=O)C1=O` [Example 21b, 1-(2-Methyl-2-sulfanylpropyl)imidazolidine-2,4,5-trione], the “IC 50 μM, Non-nitrosylated Compound (inhibition of proliferation of vascular smooth muscle cells)” value was “no inhibition”.
For `O=C(OCc1ccccc1)N1CCC(S)(CO)CC1` [Example 26d, Phenylmethyl 4-(hydroxymethyl)-4-sulfanylpiperidinecarboxylate], the “IC 50 μM, Non-nitrosylated Compound (inhibition of proliferation of vascular smooth muscle cells)” value was “no inhibition”.
In the case of `O=C(CC1(S)C2CC3CC(C2)CC1C3)NCCO` (stereo not shown) [Example 34c, N-(2-Hydroxyethyl)-2-(2-sulfanyladamantan-2-yl)acetamide], the “IC 50 μM, Non-nitrosylated Compound (inhibition of proliferation of vascular smooth muscle cells)” value is reported as “no inhibition”.
For `CC1(S)CN2CCC1CC2.Cl` (stereo not shown) [Example 36b, 3-Methylquinudidine-3-thiol hydrochloride], the “IC 50 μM, Non-nitrosylated Compound (inhibition of proliferation of vascular smooth muscle cells)” value was “no inhibition”.
With `C[N+](C)(CCNC(=O)CC1(S)C2CC3CC(C2)CC1C3)Cc1ccccc1.[Cl-]` (stereo not shown) [Example 43b, N-(2-(Dimethylbenzylammonium)ethyl)-2-(2-sulfanyladamantan-2-yl)acetamide chloride] the “IC 50 μM, Non-nitrosylated Compound (inhibition of proliferation of vascular smooth muscle cells)” value was “no inhibition”.
For `C[N+](C)(C)CCNC(=O)CC1(S)C2CC3CC(C2)CC1C3.[Cl-]` (stereo not shown) [Example 44b, 2-(2—Sulfanyladamantan-2-yl)-N-(2(trimethylammonium)ethyl)acetamide chloride], the “IC 50 μM, Non-nitrosylated Compound (inhibition of proliferation of vascular smooth muscle cells)” value was “no inhibition”.
For `SC1(C2OCCO2)CCCCC1` [Example 45a, 2(1-Mercaptocyclohex-1-yl)-1,3-dioxolane], the “IC 50 μM, Non-nitrosylated Compound (inhibition of proliferation of vascular smooth muscle cells)” value was “slight inhibition”.
With `SC1(C2OCCCO2)CCCCC1` [Example 46a, 2-(1-Mercaptocyclohex-1-yl)-1,3-dioxane] the “IC 50 μM, Non-nitrosylated Compound (inhibition of proliferation of vascular smooth muscle cells)” value was “no inhibition”.
With `COP(=O)(CC(S)(C1CC1)C1CC1)OC` [Example 47a, Dimethyl (2,2-dicyclopropyl-2-mercaptoethyl)phosphonate] the “IC 50 μM, Non-nitrosylated Compound (inhibition of proliferation of vascular smooth muscle cells)” value was “slight inhibition”.

Same assay, conditions: CASMC; viable cell count (Trypan Blue) ~68 hr after compound addition; non-nitrosylated (sulfhydryl) compound; read-out: IC 50 μM, Non-nitrosylated Compound (inhibition of proliferation of vascular smooth muscle cells)

`CC(C)(S)CN1C(=O)C2C3C=CC(C3)C2C1=O` (stereo not shown) [Example 11a, 4-Aza-4-(2-methyl-2-sulfanylpropy)tricyclo(5.2.1.0<2,6>)dec-8-ene-3,5-dione] and `CC(C)(S)CNC(=O)C(C)(C)CCC(=O)O` [Example 27a] are within 1.5-fold of each other in IC50: 80 µM for the first, 78 µM for the second.

Same assay, conditions: Homo sapiens, 68 h, read-out: IC 50 μM, Nitrosylated Compound (inhibition of proliferation of vascular smooth muscle cells)

`O=NSC1(CC(=O)OCC(CO[N+](=O)[O-])(CO[N+](=O)[O-])CO[N+](=O)[O-])C2CC3CC(C2)CC1C3` (stereo not shown) [Example 37, 2,2-Bis((nitrooxy)methyl)-3-(nitrooxy)propyl 2-(2-(nitrosothio)adamantan-2-yl)acetate] gave an IC50 of 5 µM.

Same assay, conditions: Homo sapiens; CASMC; viable cell count (Trypan Blue) ~68 hr after compound addition; nitrosylated (nitrosothiol) compound; read-out: IC 50 μM, Nitrosylated Compound (inhibition of proliferation of vascular smooth muscle cells)

`CC(C)(CN1C(=O)C2C3C=CC(C3)C2C1=O)SN=O` (stereo not shown) [Example 11b, 4-Aza-4-(2-methyl-2-(nitrosothio)propyl)tricyclo(5.2.1.0<2,6>)dec-8-ene-3,5-dione] and `CC(C)(CN1C(=O)NC(=O)C1=O)SN=O` [Example 21c, 1-(2-Methyl-2-(nitrosothio)propyl)imidazolidine-2,4,5-trione] are within 1.5-fold of each other in IC50: 16 µM for the first, 12 µM for the second.

`NC(=O)CC1(SN=O)C2CC3CC(C2)CC1C3` (stereo not shown) [Example 12d, 2-(2-(Nitrosothio)adamantan-2-yl)acetamide] and `CC(C)(C)OC(=O)CC1(SN=O)C2CC3CC(C2)CC1C3` (stereo not shown) [Example 29, tert-Butyl 2-(2-(nitrosothio)adamantan-2-yl)acetate] are within 1.5-fold of each other in IC50: 12 µM for the first, 11 µM for the second.

`CSc1nccc(NCC(C)(C)S)n1` [Example 18b, 2-Methyl-1-((2-methylthiopyrimidin-4-yl)amino)propane-2-thiol] and `CC(C)(CNC(=O)C(C)(C)CCC(=O)O)SN=O` [Example 27b, 4-Methyl-4-(N-(2-methyl-2-(nitrosothio)propyl)carbamoyl)pentanoic acid] are within 1.5-fold of each other in IC50: 26 µM for the first, 34 µM for the second.

`CC(C)(CNC(=O)CCCC(=O)O)SN=O` [Example 19b, 4-(N-(2-Methyl-2-(nitrosothio)propyl)carbamoyl)butanoic acid] and `CC(C)(CNC(=O)C(C)(C)CO[N+](=O)[O-])SN=O` [Example 38b, 2,2-Dimethyl-N-(2-methyl-2-(nitrosothio)propyl)-3-(nitrooxy)propanamide] are the same in IC50: 50 µM for the first, 50 µM for the second.

Compared with `CC(C)(CNC(=O)NCC(C)(C)SN=O)SN=O` [Example 20d, N-(2-Methyl-2-(nitrosothio)propyl)((2-methyl-2-(nitrosothio)propyl)amino)carboxamide], `CC(C)(CN)SN=O` [Example 38a, 2-Methyl-2-(nitrosothio)propylamine hydrochloride] is higher in IC50: 28 µM for the first, 40 to 60 µM for the second.

`O=NSC1(C2OCCO2)CCCCC1` [Example 45b, 2(1-Nitrosomercaptocyclohex-1-yl)-1,3-dioxolane] and `O=NSC1(C2OCCCO2)CCCCC1` [Example 46b, 2-(1-Nitrosomercaptocyclohex-1-yl)-1,3-dioxane] are within 1.5-fold of each other in IC50: 42 µM for the first, 47 µM for the second.

Same assay, conditions: Homo sapiens; CASMC; viable cell count (Trypan Blue) ~68 hr after compound addition; non-nitrosylated (sulfhydryl) compound; read-out: IC 50 μM, Non-nitrosylated Compound (inhibition of proliferation of vascular smooth muscle cells)

Compared with `CC(C)(C)OC(=O)CC1(S)C2CC3CC(C2)CC1C3` (stereo not shown) [Example 12a, tert-Butyl-2-(2-sulfanyladamant-2-yl)acetate], `CC1(S)C2CC3CC(C2)CC1C3` (stereo not shown) [Example 25b, 2-Methyladamantane-2-thiol] is 2.6-fold higher in IC50: 25 µM for the first, 65 µM for the second. The first is the more potent here.

For `CC(C)(S)CNC(=O)CCCC(=O)O` [Example 19a, 4-(N-(2-Methyl-2-sulfanylpropyl)carbamoyl)butanoic acid], the IC50 was > 200 µM.

Test system: not given
Assay: not given
Conditions: not given

First: CC1(C)c2ccccc2C(C)(C)C1(CC#N)SN=O [Example 4, 2-(1,1,3,3-Tetramethyl-2-(nitrosothio)indan-2-yl)ethanenitrile]
Second: CC12CCC(C1)C(C)(C)C2(CCO)SN=O (stereo not shown) [Example 7, 2-(1,3,3-Trimethyl-2-(nitrosothio)bicyclo(2.2.1)hept-2-yl)ethan-1-ol]
The melting point of the first is lower: 67 to 69 °C for the first, 81 to 85 °C for the second.

First: CC(C)(CNC(=O)CSCC(=O)O)SN=O [Example 5, 2-((N-(2-Methyl-2-(nitrosothio)propyl)carbamoyl)methylthio)acetic acid]
Second: CC(C)(CNC(=O)CCCC(=O)O)SN=O [Example 19b, 4-(N-(2-Methyl-2-(nitrosothio)propyl)carbamoyl)butanoic acid]
The melting point of the first is lower: 47 to 51 °C for the first, 104 to 107 °C for the second.

First: CC(C)(C)C(CC#N)(SN=O)C(C)(C)C [Example 15, 3-(tert-Butyl)-4,4-dimethyl-3-(nitrosothio)pentanenitrile]
Second: CC(C)(CNC(=O)C(C)(C)CCC(=O)O)SN=O [Example 27b, 4-Methyl-4-(N-(2-methyl-2-(nitrosothio)propyl)carbamoyl)pentanoic acid]
The melting point of the first is lower: 92 to 93 °C for the first, 93 to 96 °C for the second.

First: CSc1nccc(NCC(C)(C)SN=O)n1 [Example 18c, (2-Methyl-2-(nitrosothio)propyl)(2-methylthiopyrimidin-4-yl)amine]
Second: CC(C)(CN1C(=O)NC(=O)C1=O)SN=O [Example 21c, 1-(2-Methyl-2-(nitrosothio)propyl)imidazolidine-2,4,5-trione]
The melting point of the first is lower: 77 to 79 °C for the first, 80 to 82 °C for the second.

First: CC(C)(C)OC(=O)CC1(SN=O)C2CC3CC(C2)CC1C3 (stereo not shown) [Example 29, tert-Butyl 2-(2-(nitrosothio)adamantan-2-yl)acetate]
Second: COc1ccc(C(=O)OCCC2(SN=O)C3CC4CC(C3)CC2C4)cc1 (stereo not shown) [Example 31, 2-(2-(Nitrosothio)adamantan-2-yl)ethyl 4-methoxybenzoate]
The melting point of the first is lower: 85 to 87 °C for the first, 100 to 101 °C for the second.

First: O=NSC1(C2OCCO2)CCCCC1 [Example 45b, 2(1-Nitrosomercaptocyclohex-1-yl)-1,3-dioxolane]
Second: O=NSC1(C2OCCCO2)CCCCC1 [Example 46b, 2-(1-Nitrosomercaptocyclohex-1-yl)-1,3-dioxane]
The melting point of the first is higher: 37 to 39 °C for the first, 34 to 36 °C for the second.
